{
  "source": "paper PMC9271885",
  "about": "(eBioMedicine, 2022)",
  "key": {"SARS-CoV-2": {"tested_on": "SARS-CoV-2", "assay": "microbe, parasite or virus in culture", "type": "cell-based"}, "Vero E6 cells": {"tested_on": "Vero E6 cells", "assay": "in vitro", "details": "African green monkey, 2 days", "protocol": "(§1) One day prior to infection, 96-well culture plates were seeded with 5×10^4 Vero E6 or Caco-2 cells in 100µL assay medium per well (containing 2.5% FCS). […] After 15min, a preset amount of virus diluted in 25µL of assay medium was added to the wells. This quantity of virus was calibrated so that the viral replication was still in the exponential growth phase for the readout, as previously described, [28], [29] which correspond here to 150 TCID50 per well. Four “cell control” wells were supplemented with 50µL of assay medium without any compounds or virus. On each culture plate, a positive control compound (Remdesivir, BLDpharm) was added in duplicate with eight 2-fold serial dilutions (0.16µM to 20µM). Plates were incubated for 2 days at 37°C prior to quantification of the viral genome by real-time RT-PCR as described below. For the determination of the 50% cytotoxic concentrations (CC50; compound concentration required to reduce by 50% cell viability), the same culture conditions were used, without addition of the virus, and cell viability was measured using CellTiter Blue® (Promega) following manufacturer's instructions. EC50, EC90 and CC50 were determined using logarithmic interpolation as previously described.[28] The selectivity index of the compounds was calculated as the ratio of the CC50 over the EC50."}, "in vitro": {"assay": "in vitro", "details": "African green monkey, CC50", "protocol": "as §1"}, "[1]": {"assay": "Population pharmacokinetic modelling and simulation of TIZ in hamster (LC-MS/MS, NONMEM)", "details": "Syrian, in vivo, po", "protocol": "At each time point, approximate 80µl of blood were collected from the submandibular vein or the saphenous vein of hamsters. All samples were transferred into commercial K2-EDTA tubes, placed on ice until processed for plasma extraction by centrifugation and stored at −70°C before analysis. A LC-MS/MS-AI Triple Quad 5500 was used to determine TIZ concentrations. The mobile phase was a gradient of 0.1% formic acid (FA) in water and 0.1% of FA in acetonitrile (ACN), the column was an ACQUITY UPLC HSS T3 1.8 μm 2.1 × 50mm. For mass spectrometry a positive electrospray ionization was used, and a selected reaction monitoring was set to select TIZ: [M+H]+m/z: 266.0 / 121.2 and dexamethasone: [M+H]+m/z: 393.0 / 373.1 as internal standard.\nPharmacokinetic profiles of TIZ in hamster were analyzed using a nonlinear mixed-effects modelling approach. The population pharmacokinetics analysis was performed using NONMEM® version 7.4. The final pharmacokinetic model was established by evaluating one-, two-, and three-compartment disposition models, as well as several different absorption models (i.e. first-order absorption, first-order absorption with lag time, and transit absorption models). The inter-individual variabilities of pharmacokinetic parameters were implemented as a log-normal distribution and the residual unexplained variability was modelled as an exponential error."}, "[2]": {"details": "cited from earlier work"}, "[3]": {"assay": "Quantification of TIZ in plasma, lung and nasal turbinates of hamsters (HPLC-UV)", "type": "in vivo, Syrian hamsters", "protocol": "Quantification of TIZ in plasma and lung tissues was performed by high-performance liquid chromatography with UV detection method (Alliance 2695, Waters, USA) with a lower limit of quantification of 0.01µg/mL. The mobile phase consisted of 0.1% FA in water and 0.1% of FA in ACN (65:35, v/v). The chromatographic separation was achieved using an isocratic mode with an Xbridge BEH C18 2.5μm 4.6 × 100mm column. Peak area was quantified at 340nm using the Waters 2489 detector. TIZ was extracted by a simple protein precipitation method, using acetonitrile for plasma and ice-cold acetonitrile for clarified lung homogenates. Briefly, 200µL of samples matrix was added to 1000µL of acetonitrile solution containing the internal standard (thiopental), then vortexed for 2min followed by centrifugation for 10min at 4°C. The supernatant medium was evaporated under vacuum, then transferred to a 1.5mL Eppendorf tube. The dried residue was reconstituted with 100µl of ACN:water (50:50), vortexed for 30 seconds and centrifuged again for 10min at 4°C. The supernatant was transferred to an autosampler and 50µL was injected.\nWe used tissues from infected animals sacrificed at 3 dpi following multiple administration (animals from Figure 3); an additional group of uninfected animals treated with a single dose of 13.5mg was used as control. TIZ concentration in plasma and in lung was quantified at 1, 2 and 4 hours post treatment for the single dose analysis (group of 3 animals) and at 12 hours after the last administration for the multiple dose analysis (group of 6 animals)."}},
  "note": "“And” between values parts separate entries of the source, which are not always exact repeats. Equal values may be shown once. Read-outs that look alike come from different tables or passages of the source.",
  "data": [
    {"compound": "O=C(Nc1ncc([N+](=O)[O-])s1)c1ccccc1O", "note": "[TIZ, tizoxanide]", "values": [
      {"measurement": "EC90", "setting": "SARS-CoV-2; Severe acute respiratory syndrome coronavirus 2, Vero C1008, 48 h, Vero E6 cells, viral RNA, 2 days incubation", "value": 9.27, "unit": "µM"},
      {"measurement": "EC50", "setting": "SARS-CoV-2; Severe acute respiratory syndrome coronavirus 2, Vero C1008, 48 h, Vero E6 cells, viral RNA, 2 days incubation, read-out: EC50", "value": 7.48, "unit": "µM"},
      {"measurement": "EC50", "setting": "SARS-CoV-2; Severe acute respiratory syndrome coronavirus 2, Vero C1008, read-out: EC50 expressed in µg/mL", "value": 1.98, "unit": "µg/mL"},
      {"measurement": "Selectivity Index (SI=CC50/EC50)", "setting": "SARS-CoV-2; Vero E6 cells", "value": "higher than 13.3"},
      {"measurement": "CC50", "setting": "Vero E6 cells", "value": "> 100", "unit": "µM"},
      {"measurement": "CC50 at 2 days", "setting": "in vitro", "value": "> 60", "unit": "µM"},
      {"measurement": "Tmax", "setting": "[1]", "value": 16.6, "unit": "min"},
      {"measurement": "half-life", "setting": "[1]", "value": 48, "unit": "min"},
      {"measurement": "bound to plasma proteins", "setting": "[2]", "value": 99, "unit": "%"},
      {"measurement": "Kp at 12 h", "setting": "[3]; Syrian, hamster, in vivo, 2.8 mg/kg/day TID, multiple dose, infected animals, nitazoxanide IN 2,8 mg/kg/day TID, 12h post-administration, individual animals, read-out: Lung to plasma ratio", "value": 12.8},
      {"measurement": "concentration at 12 h", "setting": "[3]; Syrian, hamster, in vivo, 2.8 mg/kg/day TID, multiple dose, infected animals, nitazoxanide IN 2,8 mg/kg/day TID, 12h post-administration, individual animals, read-out: Tizoxanide concentration in blood", "value": 8, "unit": "ng/mL"},
      {"measurement": "concentration at 12 h", "setting": "[3]; Syrian, hamster, in vivo, 2.8 mg/kg/day, multiple dose, infected animals, nitazoxanide IN 2,8 mg/kg/day TID, 12h post-administration, individual animals, read-out: Tizoxanide concentration in blood", "value": 30, "unit": "nM"},
      {"measurement": "concentration at 12 h", "setting": "[3]; Syrian, hamster, in vivo, 2.8 mg/kg/day, multiple dose, infected animals, nitazoxanide IN 2,8 mg/kg/day TID, 12h post-administration, individual animals, read-out: Tizoxanide concentration in lungs", "value": "11.7 ng/mL and 40 nM"},
      {"measurement": "concentration at 12 h", "setting": "[3]; Syrian, hamster, in vivo, 750 mg/kg/day TID, multiple dose, infected animals, nitazoxanide per os 750 mg/kg/day TID, 12h post-administration, individual animals, read-out: Tizoxanide concentration in lungs", "value": 40, "unit": "nM"},
      {"measurement": "Kp at 12 h", "setting": "[3]; hamster, in vivo, 2.8 mg/kg/day, multiple dose NTZ 2.8mg/kg/day TID intranasal, at 3 dpi, 12 hours (trough), read-out: L/p ratio", "value": 1280},
      {"measurement": "concentration at 12 h", "setting": "[3]; hamster, in vivo, 2.8 mg/kg/day, multiple dose, infected animals, nitazoxanide IN 2,8 mg/kg/day TID, 12h post-administration, individual animals, read-out: Tizoxanide concentration in lungs", "value": 103, "unit": "ng/g"},
      {"measurement": "concentration at 12 h", "setting": "[3]; hamster, in vivo, 2.8 mg/kg/day, multiple dose, infected animals, nitazoxanide IN 2,8 mg/kg/day TID, 12h post-administration, individual animals, read-out: Tizoxanide concentration in nasal turbinates", "value": "14.8 ng/mL and 60 nM"},
      {"measurement": "Kp", "setting": "[3]; hamster, in vivo, 13.5 mg, after single-dose administration (13.5mg NTZ), hamsters, read-out: lung/plasma ratio", "value": "0.022 to 0.048"},
      {"measurement": "concentration at 1 h", "setting": "[3]; hamster, in vivo, 13.5 mg, single dose nitazoxanide 13.5mg, uninfected animals, 1h post-administration, individual animals, read-out: Tizoxanide concentration in lungs", "value": "21.5 ng/mL and 80 nM and 161 ng/g"},
      {"measurement": "Kp at 2 h", "setting": "[3]; hamster, in vivo, 13.5 mg, single dose nitazoxanide 13.5mg, uninfected animals, 2h post-administration, individual animals, read-out: Lung to plasma ratio", "value": 0.027},
      {"measurement": "concentration at 2 h", "setting": "[3]; hamster, in vivo, 13.5 mg, single dose nitazoxanide 13.5mg, uninfected animals, 2h post-administration, individual animals, read-out: Tizoxanide concentration in lungs", "value": "17.1 ng/mL and 60 nM and 132 ng/g"},
      {"measurement": "Kp at 4 h", "setting": "[3]; hamster, in vivo, 13.5 mg, single dose nitazoxanide 13.5mg, uninfected animals, 4h post-administration, individual animals, read-out: Lung to plasma ratio", "value": 0.042},
      {"measurement": "concentration at 4 h", "setting": "[3]; hamster, in vivo, 13.5 mg, single dose nitazoxanide 13.5mg, uninfected animals, 4h post-administration, individual animals, read-out: Tizoxanide concentration in lungs", "value": "8.3 ng/mL and 30 nM and 61 ng/g"},
      {"measurement": "concentration at 12 h", "setting": "[3]; hamster, in vivo, 500 mg/kg/day BID, multiple dose NTZ 500mg/kg/day BID oral, infected hamsters at 3 dpi, 12 h after last dose (trough), mean ± SD, read-out: TIZ concentration Plasma", "value": "940 ng/mL and 940 nM"},
      {"measurement": "concentration at 12 h", "setting": "[3]; hamster, in vivo, 500 mg/kg/day BID, multiple dose, infected animals, nitazoxanide per os 500 mg/kg/day BID, 12h post-administration, individual animals, read-out: Tizoxanide concentration in lungs", "value": "8.1 ng/mL and 30 nM and 57 ng/g"},
      {"measurement": "concentration at 12 h", "setting": "[3]; hamster, in vivo, 750 mg/kg/day TID, multiple dose NTZ 750mg/kg/day TID oral, infected hamsters at 3 dpi, 12 hours after last dose (trough), mean ± SD, read-out: TIZ concentration Plasma", "value": "1490 ng/mL and 1.49 µM"},
      {"measurement": "concentration at 1 h", "setting": "[3]; hamster, in vivo, po, 13.5 mg, single oral dose 13.5mg NTZ, uninfected hamsters, 1 h post-treatment, mean ± SD, read-out: TIZ concentration Plasma", "value": "5160 ng/mL and 5.16 µM"},
      {"measurement": "Kp at 2 h", "setting": "[3]; hamster, in vivo, po, 13.5 mg, single oral dose 13.5mg NTZ, uninfected hamsters, 2 h post-treatment, individual values, read-out: L/p ratio (%)", "value": 0.027},
      {"measurement": "concentration at 2 h", "setting": "[3]; hamster, in vivo, po, 13.5 mg, single oral dose 13.5mg NTZ, uninfected hamsters, 2 h post-treatment, mean ± SD, read-out: TIZ concentration Plasma", "value": "3390 ng/mL and 3.39 µM"},
      {"measurement": "Kp at 4 h", "setting": "[3]; hamster, in vivo, po, 13.5 mg, single oral dose 13.5mg NTZ, uninfected hamsters, 4 h post-treatment, individual values, read-out: L/p ratio (%)", "value": 0.042},
      {"measurement": "concentration at 4 h", "setting": "[3]; hamster, in vivo, po, 13.5 mg, single oral dose 13.5mg NTZ, uninfected hamsters, 4 h post-treatment, mean ± SD, read-out: TIZ concentration Plasma", "value": "820 ng/mL and 820 nM"},
      {"measurement": "TIZ concentration Lung (µM/g)", "setting": "[3]; multiple dose NTZ 2.8mg/kg/day TID intranasal, at 3 dpi, 12 hours (trough), individual values", "value": "0.39 µM/g and 0.41 µM/g"}
    ]}
  ]
}
